Laboratory results reported in patent publication US11273217B2, “Cancer treatment composition combining anti-CD26 antibody and other anticancer agent” (Y's AC Co., Ltd., priority 2015, dated 2022).

What was measured:
[1] = in vivo; cited from earlier work
HCC4006 cells = experiment: In vivo growth of CD26-positive lung cancer cell line HCC4006 in SCID mice (tumor weight); settings: YS110 10 mg/kg intraperitoneal, gefitinib 100 mg/kg oral, days 1 and 4; day 7
JMN cells [2] = experiment: MTT cell growth assay, JMN; assay type: cell-based; settings: gemcitabine 3×10^−10, 10^−9, or 3×10^−8 M and YS110 1, 3, or 10 μg/ml; day 2
Protocol: (§1) Gemcitabine was studied for its effect on the growth of a mesothelioma cell line. A mesothelioma cell line MESO1, JMN, H2452, or H226 (2×10^3 cells/well) was inoculated to a 96-well plate. One hour later, gemcitabine (10^−9, 10^−8, 10^−7, 10^−6, 10^−5, or 10^−4 M) was added thereto (N=6). 2 days later, MTT assay was conducted. Significant difference was tested by two-tailed t-test (vs Cont).
(§2) JMN cells (2×10^3 cells/well) were inoculated to a 96-well plate. One hour later, gemcitabine (0, 3×10^−10, 10^−9, or 3×10^−8 M) and YS110 (0, 1, 3, or 10 μg/ml) were added thereto in combination. At day 2, MTT assay was conducted. Significant difference was tested by two-tailed t-test (vs Cont). Next, interaction in concomitant use of medications was studied (n=6). The interaction between YS110 and gemcitabine used concomitantly was analyzed by two-way ANOVA.
(§3) MESO1, JMN, H2452 or H226 cells (2×10^3 cells/well were inoculated to a 96-well plate. One hour later, 3×10^−8 M or 10^−7 M gemcitabine was added thereto by concomitant use with the combination of cisplatin (0, 0.1, 0.3, or 1 μM) and pemetrexed (0, 0.03, 0.1, or 0.3 μM) (n=6). At day 2, MTT assay was conducted.
(§4) The growth inhibitory effects of cisplatin (10^−9 to 10^−4 M) and pemetrexed (10^−9 to 10^−4 M) were compared using the MESO1 and JMN cell lines.
(§5) The growth inhibitory effect of gemcitabine (10^−9 to 10^−4 M) was compared using MESO1, H2452, JMN, and H226 cell lines.

JMN cells [3] = experiment: In vivo JMN cell growth in SCID mice (tumor weight); settings: YS110 10 mg/kg, intraperitoneal
H2452 cells = experiment: Boyden chamber invasion assay, H2452; assay type: cell-based; settings: cisplatin 0, 3, or 10 μM and YS110 0, 10, or 20 μg/ml; 24 hours
Protocol: MESO1 cells or H2452 cells (2.5×10^4 cells/well) were inoculated to a Boyden chamber. One hour later, cisplatin (5, 10, or 30 μM) or pemetrexed (1, 10, or 30 μM) was added thereto (n=5), followed by Boyden chamber invasion assay. 24 hours after the cell inoculation, invasive cells were stained with Diff-Quik-staining kit. Significant difference was tested by two-tailed t-test (vs Cont).
(§6) MESO1 cells or H2452 cells (2.5×10^4 cells/well) were inoculated to a Boyden chamber. One hour later, the combination of cisplatin (0, 3, or 10 μM) and pemetrexed (0, 10, or 30 μM) was added thereto (n=5), followed by Boyden chamber invasion assay. 24 hours after the cell inoculation, invasive cells were stained with Diff-Quik-staining kit. Significant difference was tested by two-tailed t-test (vs Cont).
as §6, with “H2452” for “MESO1 cells or H2452”, “YS110” for “pemetrexed”, “20 μg/ml)” for “30 μM)”, “Cont). Next, the interaction of YS110 with cisplatin-pemetrexed concomitant use was studied. The interaction was analyzed by two-way ANOVA.” for “Cont).”

MESO1 cells [4] = experiment: MTT cell growth assay, MESO1; assay type: cell-based; settings: day 2
Protocol: MESO1 or H2452 cells (2×10^3 cells/well) were inoculated to a 96-well plate. One hour later, cisplatin or pemetrexed was added thereto at 10^−9, 10^−8, 10^−7, 10^−6, 10^−5, or 10^−4 M (n=6). At day 2, MTT assay was conducted.
MESO1 cells (2×10^3 cells/well) were inoculated to a 96-well plate. One hour later, the combination of 0.3, 3, or 10 μM cisplatin and 0.1, 3, or 10 μg/ml YS110, or the combination of 0.03, 0.3, or 1 μM pemetrexed and 0.1, 3, or 10 μg/ml YS110 was added thereto. At day 2, MTT assay was conducted. Significant difference was tested by two-tailed t-test (vs Cont).
MESO1 cells (2×10^3 cells/well) or H2452 cells (2×10^3 cells/well) were inoculated to a 96-well plate. One hour later, 0.3 μM cisplatin-0.1 μM pemetrexed combination, or YS110 (10 μg/ml) plus the 0.3 μM cisplatin-0.1 μM pemetrexed combination was added thereto (n=6). At day 2, MTT assay was conducted. Significant difference was tested by two-tailed t-test (vs Cont).
as §1
as §2, with “MESO1” for “JMN”, “10^−8, 3×10^−8,” for “3×10^−10, 10^−9,”, “10^−7” for “3×10^−8”
as §3, §4, §5

MESO1 cells [5] = experiment: In vivo MESO1 cell growth in SCID mice (tumor weight); settings: YS110 10 mg/kg, cisplatin 0.5 mg/kg, pemetrexed 50 mg/kg, intraperitoneal, days 1 and 4; tumor weight day 7
Protocol: MESO1 cells (3×10^5 cells/animal) were subcutaneously transplanted to the backs of female SCID mice. The day of transplantation was defined as day 0. YS110 (10 mg/kg) alone, cisplatin (0.5 mg/kg)-pemetrexed (50 mg/kg) used concomitantly, or YS110 (10 mg/kg) concomitantly used with the cisplatin-pemetrexed concomitant use was intraperitoneally administered to the mice twice (days 1 and 4). At day 7, their tumors were excised, and the tumor weights were measured. Significant difference was tested by two-tailed t-test (vs Cont).

Substance: YS110: humanized anti-CD26 antibody designed based on anti-CD26 mouse antibody 14D10; SEQ ID NO: 17 and 18
- safety in phase I clinical trial [1]: demonstrated its safety
- effect of YS110 on the effect of gefitinib (tumor weight) (HCC4006 cells): potentiated
- effect of YS110 on the growth inhibitory effect of gemcitabine (JMN cells [2]): potentiated
- effect of YS110 on the in vivo tumor growth inhibitory effect of cisplatin (JMN cells [3]; cisplatin 0.5 mg/kg, days 1 and 4, tumor weight day 7): potentiated
- effect of YS110 on the in vivo tumor growth inhibitory effect of cisplatin-pemetrexed (JMN cells [3]; cisplatin 0.5 mg/kg, pemetrexed 50 mg/kg, days 1 and 4, tumor weight day 7): potentiated
- inhibitory effect (tumor weight) (JMN cells [3]; gemcitabine 10 mg/kg, days 2 and 4, day 7): 34%
- effect of YS110 on the in vivo tumor growth inhibitory effect of pemetrexed (JMN cells [3]; pemetrexed 50 mg/kg, days 1 and 4, tumor weight day 7): potentiated
- effect of YS110 on the cell invasion inhibitory action of cisplatin-pemetrexed (H2452 cells): synergistically potentiated
- effect of YS110 on the cell growth inhibitory effect of pemetrexed (MESO1 cells [4]; 0.03, 0.3, or 1 μM pemetrexed and 0.1, 3, or 10 μg/ml YS110): potentiated
- effect of YS110 on the cell growth inhibitory effect of cisplatin (MESO1 cells [4]; 0.3, 3, or 10 μM cisplatin and 0.1, 3, or 10 μg/ml YS110): potentiated
- effect of YS110 on the cell growth inhibitory effect of cisplatin-pemetrexed (MESO1 cells [4]; YS110 10 μg/ml plus 0.3 μM cisplatin-0.1 μM pemetrexed): potentiated
- effect of YS110 on the growth inhibitory effect of gemcitabine (MESO1 cells [4]; gemcitabine 10^−8, 3×10^−8, or 10^−7 M and YS110 1, 3, or 10 μg/ml): potentiated
- effect of YS110 on the in vivo tumor growth inhibitory effect of cisplatin-pemetrexed (MESO1 cells [5]): potentiated
